Measured values: patent US20230139922A1, “BACITRACIN-ALGINATE OLIGOMER CONJUGATES” (AlgiPharma AS, priority 2016, published 2023)
Converted amounts (≈) assume the structure as drawn. Like-named read-outs stand apart in the source and are kept apart here. Where a SMILES comes first, the peptide text is derived from it. Bridges are numbered along the chain shown (N, C = ends). [ ]: non-standard residue; d: D form. The star is where a group is joined. Ileψ(thiazoline)Cys = CC[C@H](C)[C@H](N)C1=N[C@H](C(=O)*)CS1; dOrn = NCCC[C@@H](N)C(=O)O

Columns and labels:
Format in all cases: cell-based
[1] = tested on: Gram negative species tested (Pseudomonas aeruginosa, Klebsiella pneumonia, Escherichia coli and Acinetobacter baumannii); experiment: Antimicrobial activity (MIC) against Gram negative species; conditions: summary in words
Procedure: (§1) The strains used for susceptibility testing include both culture collection strains and clinical isolates are recited below. Their known relevant genotypes and origin have been described by Khan et al. supra.
(§2) The MICs of alginate oligomers, bacitracin and alginate oligomer conjugates thereof were determined for isolates V2, V3, VS, V19, E68 and E75 using the broth microdilution method in accordance with standard guidelines (CLSI 2012). Test organisms were suspended in Mueller Hinton cation adjusted (MH) broth (100 μL, 1-5×10^4 CFU/mL) and incubated in 96-well microtitre plates in serial two-fold dilutions of the test compounds. The MIC was defined as the lowest concentration of test compound that produced no visible growth after 16-20 hours.

[2] = tested on: V33; experiment: MIC, broth microdilution (CLSI 2012), isolate V33; conditions: Batch 1; MH broth, 16-20 hours
[3] = tested on: Staphylococcus aureus (Gram positive); experiment: Antimicrobial activity (MIC) against Gram positive species; conditions: summary in words
Procedure: as §1, §2

[4] = tested on: Escherichia coli
Procedure: as §1, §2

[5] = tested on: Klebsiella pneumoniae
Procedure: as §1, §2

[6] = tested on: Pseudomonas aeruginosa (301), MDR-PSA isolate
Procedure: as §1, §2

[7] = tested on: Acinetobacter baumannii
Procedure: as §1, §2

`CC[C@H](C)[C@H](N)C1=N[C@H](C(=O)N[C@@H](CC(C)C)C(=O)N[C@H](CCC(=O)O)C(=O)N[C@H](C(=O)N[C@H]2CCCCNC(=O)[C@H](CC(N)=O)NC(=O)[C@@H](CC(=O)O)NC(=O)[C@H](Cc3cnc[nH]3)NC(=O)[C@@H](Cc3ccccc3)NC(=O)[C@H]([C@@H](C)CC)NC(=O)[C@@H](CCCN)NC2=O)[C@@H](C)CC)CS1` [Bacitracin, bacitracin] ({Ileψ(thiazoline)Cys}-L[dE]IK[dOrn]I[dF]H[dD]N; lactam 4-C) was tested, and the “antimicrobial activity against the Gram negative species tested” value [1] was “but not the Gram negative species tested”, the “MIC V33” value [2] was greater than 128 µg/mL and the “antimicrobial activity against Staphylococcus aureus (Gram positive)” value [3] was “high antimicrobial activity”. For the same compound, the “MIC V5” value [4] was 640 µg/mL (≈ 450 µM), the “MIC V5” value ([4]; Batch 1, MH broth, 16-20 hours) was greater than 128 µg/mL and the “MIC V3” value [5] was greater than 8192 µg/mL. The “MIC V3” value ([5]; Batch 1, MH broth, 16-20 hours) was greater than 128 µg/mL, the “MIC V2” value ([6]; 301), MDR-PSA isolate) was greater than 8192 µg/mL and the “MIC V2” value ([6]; Batch 1, MH broth, 16-20 hours) was greater than 128 µg/mL. The “MIC V19” value [7] was 640 µg/mL (≈ 450 µM) and the “MIC V19” value ([7]; Batch 1, MH broth, 16-20 hours) was greater than 128 µg/mL.
